Among the data in patent publication US20030078251A1, “Benzoxazepinones and their use as squalene synthase inhibitors” (priority 2000, published 2003) are melting point values, retold here.

`CCCCS(=O)(=O)NC(=O)C[C@H]1O[C@H](c2cccc(OC)c2OC)c2cc(Cl)ccc2N(CC(C)(C)CO)C1=O` [Example 4, (3R,5S)-N-butanesulfonyl-7-chloro-5-(2,3-dimethoxyphenyl)-1-(3-hydroxy-2,2-dimethylpropyl)-2-oxo-1,2,3,5-tetrahydro-4,1-benzoxazepine-3-acetamide] returned a melting point of 123 to 125 °C.
Under `COc1cccc([C@H]2O[C@H](CC(=O)NS(=O)(=O)CCCO)C(=O)N(CC(C)(C)CO)c3ccc(Cl)cc32)c1OC` [Example 6, (3R,5S)-N-(3-hydroxypropyl)sulfonyl-7-chloro-5-(2,3-dimethoxyphenyl)-1-(3-hydroxy-2,2-dimethylpropyl)-2-oxo-1,2,3,5-tetrahydro-4,1-benzoxazepine-3-acetamide] stands 133 to 135 °C; under `COc1cccc([C@H]2O[C@H](CC(=O)N[C@H](CCSC)C(=O)O)C(=O)N(CC(C)(C)CO)c3ccc(Cl)cc32)c1OC` [Example 16, N-[[(3R,5S)-7-chloro-5-(2,3-dimethoxyphenyl)-1-(3-hydroxy-2,2-dimethylpropyl)-2-oxo-1,2,3,5-tetrahydro-4,1-benzoxazepin-3-yl]acetyl]-D-methionine], 142 to 143 °C; under `COc1cccc([C@H]2O[C@H](CC(=O)NCCc3oc(C(=O)O)cc3C(=O)O)C(=O)N(CC(C)(C)CO)c3ccc(Cl)cc32)c1OC` [Example 28, 5-[2-[[[(3R,5S)-7-chloro-5-(2,3-dimethoxyphenyl)-1(2,2-dimethyl-3-hydroxypropyl)-2-oxo-1,2,3,5-tetrahydro-4,1-benzoxazepin-3-yl]acetyl]amino]ethyl]furan-2,4-dicarboxylic acid], 155 to 157 °C.
To `COc1cccc([C@H]2O[C@H](CC(=O)NCc3ccc(C(=O)O)o3)C(=O)N(CC(C)(C)CO)c3ccc(Cl)cc32)c1OC` [Example 29, 5-[[[[(3R,5S)-7-chloro-5-(2,3-dimethoxyphenyl)-1-(2,2-dimethyl-3-hydroxypropyl)-2-oxo-1,2,3,5-tetrahydro-4,1-benzoxazepin-3-yl]acetyl]amino]methyl]furan-2-carboxylic acid] belongs 128 to 131 °C; to `COc1cccc([C@H]2O[C@H](CC(=O)Nc3ccc(CC(=O)O)cc3)C(=O)N(CC(C)(C)CO)c3ccc(Cl)cc32)c1OC` [Example 31, 4-[[(3R,5S)-7-chloro-5-(2,3-dimethoxyphenyl)-1-(3-hydroxy-2,2-dimethylpropyl)-2-oxo-1,2,3,5-tetrahydro-4,1-benzoxazepin-3-yl]acetyl]aminophenylacetic acid], 142 to 144 °C.
Compound `COc1cccc([C@H]2O[C@H](CC(=O)Nc3cccc(C(=O)O)c3C)C(=O)N(CC(C)(C)CO)c3ccc(Cl)cc32)c1OC` [Example 43, 3-[[[(3R,5S)-7-chloro-5-(2,3-dimethoxyphenyl)-1-(3-hydoroxy-2-dimethylpropyl)-2-oxo-1,2,3,5-tetrahydro-4,1-benzoxazepin-3-yl]acetyl]amino]-2-methylbenzoic acid] displayed a melting point of 165 to 168 °C.
In turn, `COc1cccc([C@H]2O[C@H](CC(=O)Nc3cccc(C(=O)O)c3C)C(=O)N(CC(C)(C)COC(C)=O)c3ccc(Cl)cc32)c1OC` [Example 44, 3-[[[(3R,5S)-1-(3-acetoxy-2,2-dimethylpropyl)-7-chloro-5-(2,3-dimethoxyphenyl)-2-oxo-1,2,3,5-tetrahydro-4,1-benzoxazepin-3-yl]acetyl]amino]-2-metylbenzoic acid] had a melting point of 139 to 142 °C.
Under `COc1cccc([C@H]2O[C@H](CC(=O)Nc3ccc(C(=O)O)cc3C)C(=O)N(CC(C)(C)CO)c3ccc(Cl)cc32)c1OC` [Example 48, 4-[[(3R,5S)-7-chloro-5-(2,3-dimethoxyphenyl)-1-(3-hydroxy-2,2-dimethylpropyl)-2-oxo-1,2,3,5-tetrahydro-4,1-benzoxazepin-3-yl]acetyl]amino-3-methylbenzoic acid] stands 275 to 276 °C.
Regarding `CCOc1ccc(CCC(=O)O)cc1NC(=O)C[C@H]1O[C@H](c2cccc(OC)c2OC)c2cc(Cl)ccc2N(CC(C)(C)CO)C1=O` [Example 49, 3-[3-[[[(3R,5S)-7-chloro-5-(2,3-dimethoxyphenyl)-1-(3-hydroxy-2,2-dimethylpropyl)-2-oxo-1,2,3,5-tetrahydro-4,1-benzoxazepin-3-yl]acetyl]amino]-4-ethoxyphenyl]propionic Acid], the melting point lay within 151 to 153 °C.
Under `CCOc1ccc(CCC(=O)O)cc1NC(=O)C[C@H]1O[C@H](c2cccc(OC)c2OC)c2cc(Cl)ccc2N(CC(C)(C)COC(C)=O)C1=O` [Example 50, 3-[3-[[[(3R,5S)-1-(3-acetoxy-2,2-dimethylpropyl)-7-chloro-5-(2,3-dimethoxyphenyl)-2-oxo-1,2,3,5-tetrahydro-4,1-benzoxazepin-3-yl]acetyl]amino]-4-ethoxyphenyl]propionic Acid] stands 175 to 176 °C.
Under `COc1cccc([C@H]2O[C@H](CC(=O)Nc3cc(CCC(=O)O)ccc3OC(C)C)C(=O)N(CC(C)(C)CO)c3ccc(Cl)cc32)c1OC` [Example 51, 3-[3-[[[(3R,5S)-7-chloro-5-(2,3-dimethoxyphenyl)-1-(3-hydroxy-2,2-dimethylpropyl)-2-oxo-1,2,3,5-tetrahydro-4,1-benzoxazepin-3-yl]acetyl]amino]-4-isopropoxyphenyl]propionic Acid] stands 133 to 136 °C.
To `COc1cccc([C@H]2O[C@H](CC(=O)Nc3cc(CCC(=O)O)ccc3OC(C)C)C(=O)N(CC(C)(C)COC(C)=O)c3ccc(Cl)cc32)c1OC` [Example 52, 3-[3-[[[(3R,5S)-1-(3-acetoxy-2,2-dimethylpropyl)-7-chloro-5-(2,3-dimethoxyphenyl)-2-oxo-1,2,3,5-tetrahydro-4,1-benzoxazepin-3-yl]acetyl]amino]-4-isopropoxyphenyl]propionic Acid] belongs 101 to 103 °C; to `COc1cc(CCC(=O)O)cc(NC(=O)C[C@H]2O[C@H](c3cccc(OC)c3OC)c3cc(Cl)ccc3N(CC(C)(C)CO)C2=O)c1OC` [Example 66, 3-[5-[[[(3R,5S)-7-chloro-5-(2,3-dimethoxyphenyl)-1-(3-hydroxy-2,2-dimethylpropyl)-2-oxo-1,2,3,5-tetrahydro-4,1-benzoxazepin-3-yl]acetyl]amino]-3,4-dimethoxyphenyl]propionic Acid], 145 to 148 °C; to `COc1cccc([C@H]2O[C@H](CC(=O)Nc3ccc(CCCC(=O)O)cc3)C(=O)N(CC(C)(C)CO)c3ccc(Cl)cc32)c1OC` [Example 68, 4-[4-[[[(3R,5S)-7-chloro-5-(2,3-dimethoxyphenyl)-1-(3-hydroxy-2,2-dimethylpropyl)-2-oxo-1,2,3,5-tetrahydro-4,1-benzoxazepin-3-yl]acetyl]amino]phenyl]butanoic acid], 194 to 195 °C.
Compound `COc1cccc([C@H]2O[C@H](CC(=O)NCCCC(=O)O)C(=O)N(CC(C)(C)C)c3ccc(Cl)cc32)c1OC` [Example 70, 4-[[(3R,5S)-7-chloro-5-(2,3-dimethoxyphenyl)-1-neopentyl-2-oxo-1,2,3,5-tetrahydro-4,1-benzoxazepin-3-yl]acetyl]aminobutanoic acid] yielded a melting point of 128 to 130 °C.

The term melting point denotes the temperature, or range, at which the solid turns liquid.
